# Assay results taken from patent US20060069132A1, “Azolecarboxamide herbicides” (priority 2004, published 2006).
# Columns and labels:
# [1] = tested on: large crabgrass; test: Test B pre-/postemergence herbicide test; type: in vivo, Digitaria sanguinalis; conditions: for Crabgrass, Large plant response rating: postemergence, visual rating, scale 0 (no effect) to 100 (complete control)
# Summary of the method: (§1)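 Herbicidal effect was judged by eye on a 0–100 scale after plants stood 13 to 15 days in the greenhouse following pre- or postemergence treatment with surfactant-containing formulations.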
# [2] = tested on: wheat; test: Test B postemergence herbicide test; type: in vivo, Triticum aestivum; design: key to Wheat plant response rating: 0 = no effect, 100 = complete control; conditions: postemergence, visual rating, scale 0 (no effect) to 100 (complete control)
# Summary of the method: (§2)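 Read-out: visual comparison with controls, scored 0 to 100, where 100 means complete control and 0 no effect. Formulated chemicals were applied postemergence to plants 2–18 cm tall (1- to 4-leaf), or to flooded-paddy plants at the 2-leaf stage, then held 13 to 15 days under glass.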
# [3] = tested on: barnyardgrass; test: Test B flooded paddy test; type: in vivo, Echinochloa crus-galli; conditions: 1000 g ai/ha, visual rating, scale 0 to 100 (0 no effect, 100 complete control), 13 to 15 days
# Summary of the method: (§3)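 Postemergence plants were sprayed with formulated test chemicals at 2 to 18 cm height (1- to 4-leaf stage); paddy species were grown to the 2-leaf stage. After 13 to 15 days in a greenhouse, injury was rated visually against untreated controls on a 0–100 scale (0 = no effect, 100 = complete control).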
# [4] = tested on: cocklebur; test: Test B pre-/postemergence herbicide test; type: in vivo, Xanthium strumarium; conditions: for Cocklebur plant response rating: postemergence, visual rating, scale 0 (no effect) to 100 (complete control)
# Summary of the method: (§4)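 Seeds were planted and treated preemergence with compounds formulated in a non-phytotoxic solvent mixture containing surfactant, while plants at the 1- to 4-leaf stage (2 to 18 cm) received postemergence sprays. Flooded paddy plants were grown to the 2-leaf stage. After 13 to 15 days in a greenhouse, injury was visually rated 0–100 against untreated controls.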
# [5] = tested on: rice; test: Test B pre-/postemergence herbicide test; type: in vivo, Oryza sativa; conditions: preemergence
# Summary of the method: as §1
# [6] = tested on: Surinam grass; test: Test B pre-/postemergence herbicide test; type: in vivo, Urochloa decumbens; conditions: for Plant response rating, Surinam Grass: preemergence; for Surinam Grass plant response rating: postemergence, visual rating, scale 0 (no effect) to 100 (complete control)
# Summary of the method: as §1
# [7] = tested on: wild oat; test: Test B postemergence herbicide test; type: in vivo, Avena fatua; conditions: postemergence, visual rating, scale 0 (no effect) to 100 (complete control)
# Summary of the method: as §2
# [8] = tested on: barnyardgrass; test: Test B pre-/postemergence herbicide test; type: in vivo, Echinochloa crus-galli; conditions: for Barnyardgrass plant response rating: postemergence, visual rating, scale 0 (no effect) to 100 (complete control)
# Summary of the method: as §4
# [9] = tested on: lambsquarters; test: Test B pre-/postemergence herbicide test; type: in vivo, Chenopodium album; conditions: for Lambsquarters plant response rating: postemergence, visual rating, scale 0 (no effect) to 100 (complete control)
# Summary of the method: as §1
# [10] = tested on: ducksalad; test: Test B flooded paddy test; type: in vivo, Heteranthera limosa; conditions: 1000 g ai/ha, visual rating, scale 0 to 100 (0 no effect, 100 complete control), 13 to 15 days
# Summary of the method: as §3
# [11] = tested on: corn; test: Test B pre-/postemergence herbicide test; type: in vivo, Zea mays; conditions: for Corn plant response rating: postemergence, visual rating, scale 0 (no effect) to 100 (complete control)
# Summary of the method: as §1
# [12] = tested on: rice; test: Test B flooded paddy test; type: in vivo, Oryza sativa; conditions: 1000 g ai/ha, visual rating, scale 0 to 100 (0 no effect, 100 complete control), 13 to 15 days
# Summary of the method: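 Treated at 2-leaf (paddy) or 1–4-leaf, 2–18 cm (postemergence); greenhouse 13–15 d; visual score vs control, 0 none to 100 complete control; dash = not tested.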
# [13] = tested on: giant foxtail; test: Test B pre-/postemergence herbicide test; type: in vivo, Setaria faberi; conditions: for Plant response rating, Foxtail, Giant: preemergence; for Foxtail, Giant plant response rating: postemergence, visual rating, scale 0 (no effect) to 100 (complete control)
# Summary of the method: as §1
# [14] = tested on: velvetleaf; test: Test B pre-/postemergence herbicide test; type: in vivo, Abutilon theophrasti; conditions: for Velvetleaf plant response rating: postemergence, visual rating, scale 0 (no effect) to 100 (complete control)
# Summary of the method: as §1
# [15] = tested on: blackgrass; test: Test B postemergence herbicide test; type: in vivo, Alopecurus myosuroides; conditions: postemergence, visual rating, scale 0 (no effect) to 100 (complete control)
# Summary of the method: as §3
# [16] = tested on: pigweed; test: Test B pre-/postemergence herbicide test; type: in vivo, Amaranthus retroflexus; conditions: for Pigweed plant response rating: postemergence, visual rating, scale 0 (no effect) to 100 (complete control)
# Summary of the method: as §1
# [17] = tested on: small flower umbrella sedge; test: Test B flooded paddy test; type: in vivo, Cyperus difformis; conditions: 1000 g ai/ha, visual rating, scale 0 to 100 (0 no effect, 100 complete control), 13 to 15 days
# Summary of the method: as §3
# [18] = tested on: morningglory; test: Test B pre-/postemergence herbicide test; type: in vivo, Ipomoea coccinea; conditions: for Morningglory plant response rating: postemergence, visual rating, scale 0 (no effect) to 100 (complete control)
# Summary of the method: as §4
# [19] = 125 g ai/ha, 0 = no effect, 100 = complete control, preemergence
# [20] = 500 g ai/ha, visual rating 0-100, 0 no effect, 100 complete control, preemergence
# [21] = 500 g ai/ha, visual rating 0-100, 0 no effect, 100 complete control
# [22] = preemergence, 125 g ai/ha, 0 to 100 scale, 0 is no effect, 100 is complete control
# [23] = 125 g ai/ha, 0 to 100 scale, 0 is no effect, 100 is complete control
structure (smiles),measurement,setting,value
CC(=NO)c1cccc(NC(=O)c2nn(C(C)(C)C)cc2C(F)(F)F)c1 [Compound 171],"Crabgrass, Large plant response rating (0 to 100 scale)",[1]; [19],0
same,"Plant response rating, Crabgrass, Large",[1]; [20],30
same,"Crabgrass, Large plant response rating",[1]; 125 g ai/ha,0
same,"Crabgrass, Large plant response rating",[1]; 500 g ai/ha,10
same,Wheat plant response rating,[2]; 125 g ai/ha,0
same,Wheat plant response rating,[2]; 500 g ai/ha,0
same,Barnyardgrass plant response rating,[3],0
same,Cocklebur plant response rating (0 to 100 scale),[4]; [19],0
same,"Plant response rating, Cocklebur",[4]; [20],0
same,Cocklebur plant response rating,[4]; 125 g ai/ha,0
same,Cocklebur plant response rating,[4]; 500 g ai/ha,0
same,Rice plant response rating (0 to 100 scale),"[5]; 125 g ai/ha, 0 = no effect, 100 = complete control",0
same,"Plant response rating, Rice",[5]; [21],0
same,"Plant response rating, Surinam Grass",[6]; [21],0
same,Surinam Grass plant response rating,[6]; 125 g ai/ha,10
same,Surinam Grass plant response rating,[6]; 500 g ai/ha,10
same,"Oat, Wild plant response rating",[7]; 125 g ai/ha,0
same,"Oat, Wild plant response rating",[7]; 500 g ai/ha,0
same,Barnyardgrass plant response rating (0 to 100 scale),[8]; [19],0
same,"Plant response rating, Barnyardgrass",[8]; [20],0
same,Barnyardgrass plant response rating,[8]; 125 g ai/ha,0
same,Barnyardgrass plant response rating,[8]; 500 g ai/ha,10
same,Lambsquarters plant response rating (0 to 100 scale),[9]; [19],0
same,"Plant response rating, Lambsquarters",[9]; [20],0
same,Lambsquarters plant response rating,[9]; 125 g ai/ha,10
same,Lambsquarters plant response rating,[9]; 500 g ai/ha,20
same,Ducksalad plant response rating,[10],0
same,Corn plant response rating (0 to 100 scale),[11]; [19],0
same,"Plant response rating, Corn",[11]; [20],0
same,Corn plant response rating,[11]; 125 g ai/ha,0
same,Corn plant response rating,[11]; 500 g ai/ha,10
same,Rice plant response rating,[12],0
same,"Plant response rating, Foxtail, Giant",[13]; [21],0
same,"Foxtail, Giant plant response rating",[13]; 125 g ai/ha,10
same,"Foxtail, Giant plant response rating",[13]; 500 g ai/ha,20
same,Velvetleaf plant response rating (0 to 100 scale),[14]; [19],0
same,"Plant response rating, Velvetleaf",[14]; [20],20
same,Velvetleaf plant response rating,[14]; 125 g ai/ha,0
same,Velvetleaf plant response rating,[14]; 500 g ai/ha,0
same,Blackgrass plant response rating,[15]; 125 g ai/ha,0
same,Blackgrass plant response rating,[15]; 500 g ai/ha,0
same,Pigweed plant response rating (0 to 100 scale),[16]; [19],0
same,"Plant response rating, Pigweed",[16]; [20],0
same,Pigweed plant response rating,[16]; 125 g ai/ha,10
same,Pigweed plant response rating,[16]; 500 g ai/ha,20
same,"Sedge, Umbrella plant response rating",[17],0
same,Morningglory plant response rating (0 to 100 scale),[18]; [19],0
same,Morningglory plant response rating,[18]; 125 g ai/ha,0
same,Morningglory plant response rating,[18]; 500 g ai/ha,0
CCOC(=O)c1ccnc(NC(=O)c2cc(C(C)(C)C)nn2CC)c1 [Compound 157],"Plant response rating, Crabgrass, Large",[1]; [20],20
same,"Crabgrass, Large plant response rating",[1]; 125 g ai/ha,0
same,"Crabgrass, Large plant response rating",[1]; 500 g ai/ha,20
same,"Plant response rating, Crabgrass, Large",[1]; [22],0
same,Wheat plant response rating,[2]; 500 g ai/ha,20
same,Barnyardgrass plant response rating,[3],20
same,"Plant response rating, Cocklebur",[4]; [20],20
same,Cocklebur plant response rating,[4]; 125 g ai/ha,10
same,Cocklebur plant response rating,[4]; 500 g ai/ha,90
same,"Plant response rating, Cocklebur",[4]; [22],0
same,"Plant response rating, Rice",[5]; [21],0
same,"Plant response rating, Rice",[5]; [23],0
same,"Plant response rating, Surinam Grass",[6]; [21],0
same,Surinam Grass plant response rating,[6]; 125 g ai/ha,20
same,Surinam Grass plant response rating,[6]; 500 g ai/ha,20
same,"Plant response rating, Surinam Grass",[6]; [23],0
same,"Oat, Wild plant response rating",[7]; 125 g ai/ha,10
same,"Oat, Wild plant response rating",[7]; 500 g ai/ha,40
same,"Plant response rating, Barnyardgrass",[8]; [20],0
same,Barnyardgrass plant response rating,[8]; 125 g ai/ha,0
same,Barnyardgrass plant response rating,[8]; 500 g ai/ha,20
same,"Plant response rating, Barnyardgrass",[8]; [22],0
same,"Plant response rating, Lambsquarters",[9]; [20],30
same,Lambsquarters plant response rating,[9]; 125 g ai/ha,20
same,Lambsquarters plant response rating,[9]; 500 g ai/ha,70
same,"Plant response rating, Lambsquarters",[9]; [22],0
same,Ducksalad plant response rating,[10],0
same,"Plant response rating, Corn",[11]; [20],0
same,Corn plant response rating,[11]; 125 g ai/ha,0
same,Corn plant response rating,[11]; 500 g ai/ha,0
same,"Plant response rating, Corn",[11]; [22],0
same,Rice plant response rating,[12],30
same,"Plant response rating, Foxtail, Giant",[13]; [21],0
same,"Foxtail, Giant plant response rating",[13]; 125 g ai/ha,30
same,"Foxtail, Giant plant response rating",[13]; 500 g ai/ha,40
same,"Plant response rating, Foxtail, Giant",[13]; [23],0
same,"Plant response rating, Velvetleaf",[14]; [20],0
same,Velvetleaf plant response rating,[14]; 125 g ai/ha,50
same,Velvetleaf plant response rating,[14]; 500 g ai/ha,80
same,"Plant response rating, Velvetleaf",[14]; [22],0
same,Blackgrass plant response rating,[15]; 125 g ai/ha,10
same,Blackgrass plant response rating,[15]; 500 g ai/ha,20
same,"Plant response rating, Pigweed",[16]; [20],40
same,Pigweed plant response rating,[16]; 125 g ai/ha,40
same,Pigweed plant response rating,[16]; 500 g ai/ha,80
same,"Plant response rating, Pigweed",[16]; [22],0
same,"Sedge, Umbrella plant response rating",[17],40
same,"Plant response rating, Morningglory",[18]; [20],40
same,Morningglory plant response rating,[18]; 125 g ai/ha,0
same,Morningglory plant response rating,[18]; 500 g ai/ha,30
same,"Plant response rating, Morningglory",[18]; [22],0
